The source of these data is patent US20240101552A1, “CARBONYL HETEROCYCLIC COMPOUND AND APPLICATION THEREOF” (SHANGHAI PHARMACEUTICALS HOLDING CO., LTD., priority 2020, published 2024).

One may read the Kd as the equilibrium constant for the complex coming apart. The low end stands for tighter binding, the high end for weaker binding.

This assay has as its target LANCL2 (Homo sapiens (Human), UniProt Q9NS86). The experiment in a line: SPR (BIACORE S200) kinetic determination of LANCL2-small molecule interactions. Type of assay: binding. The note with it: for Kd: immobilized LANCL2, 1:1 binding model, pH 6.5, 25° C.; for Rmax (RU): maximum binding force. The protocol: 1.1 Reagent Materials • Ligand: LANCL2 • Running buffer: 20 mM MES, 150 mM NaCl, 0.05% P20, pH 6.5, 1% DMSO
Injection conditions for small molecule compounds: a flow rate of 30 μL/min, a binding time of 60 s, a dissociation time of 300 s.
Running buffer: 20 mM MES, 150 mM NaCl, 0.05% P20, pH 6.5, 1% DMSO.
Sample chamber temperature: 25° C.; analysis temperature: 25° C.
Kinetic determination of LANCL2-small molecule interactions was performed. The kinetic parameters of small molecules BT-11 and L-1 to 60 (analytes) binding to LANCL2 (ligand) were determined using BIACORE S200. Data were generated in triplicate in a dose-dependent manner (5-8 titration points) and analyzed to determine binding models (Langmuir, conformational shifts, etc.), real-time association and dissociation constants, and equilibrium dissociation constants. SPR technology allows the validation of specific LANCL2-phytochemical interactions as well as an increased insight into the gold standard of binding mechanisms and rates. Experiments were performed on carboxymethyl polydextrose (CM5) sensor chips by amine-coupled covalent attachment of LANCL2. Data were analyzed with BIACORE S200T200 evaluation software (version 1), so as to determine affinity binding constants (KD) using a 1:1 binding model.
An optical technique for detecting molecular interactions, SPR, was used to measure the binding affinity between LANCL2 and a ligand thereof (compound to be tested). Purified recombinant LANCL2 protein was immobilized on a BIACORE sensor chip and small molecules were injected onto the protein surface using an equipment of microfluidic system. The change in total mass on the chip surface, corresponding to a small binding to the protein, was measured. […] The equilibrium dissociation constant (Kd) was often used to describe the affinity between a ligand and a protein, such as affinity degree of a ligand binding to a specific protein. Ligand-protein affinity was affected by non-covalent intermolecular interactions between two molecules, such as hydrogen bonding, electrostatic interactions, hydrophobic bonds and van der Waals forces. The steady-state affinity (Kd) for each interaction could be measured by plotting equilibrium binding levels against compound concentrations.
(SPR reads the build-up and loss of mass on a sensor chip optically.)

Sequence of LANCL2 (Q9NS86 whole entry, species assumed): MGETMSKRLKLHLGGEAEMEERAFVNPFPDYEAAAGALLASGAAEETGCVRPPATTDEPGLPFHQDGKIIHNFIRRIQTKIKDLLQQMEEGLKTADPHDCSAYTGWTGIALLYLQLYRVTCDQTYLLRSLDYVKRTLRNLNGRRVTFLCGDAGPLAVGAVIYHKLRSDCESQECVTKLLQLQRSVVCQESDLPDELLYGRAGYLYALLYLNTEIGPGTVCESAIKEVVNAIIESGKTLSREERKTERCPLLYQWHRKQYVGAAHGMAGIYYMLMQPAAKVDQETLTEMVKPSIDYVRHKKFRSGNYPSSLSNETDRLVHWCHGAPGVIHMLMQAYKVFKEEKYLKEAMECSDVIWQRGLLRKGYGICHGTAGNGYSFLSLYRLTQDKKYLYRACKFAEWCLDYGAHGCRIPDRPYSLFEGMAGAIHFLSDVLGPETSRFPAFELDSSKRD

On to `O=C1CCC(C(=O)N2CC3CN(C(=O)c4cccc(-c5nc6ccccc6[nH]5)n4)CC3C2)=NN1` [Embodiment L-121, 6-(5-(6-(1Hbenzo[d]imidazol-2-yl)picolinoyl)octahydropyrrolo[3,4-c]pyrrole-2-carbonyl)-4,5-dihydropyridazin-3(2H)-one], for which binding was put at a Kd of 20.8 µM and the “Rmax (RU)” value was 2.3 RU.
On the same counts, the results for `O=C(c1cccc(-c2nc3ccccc3[nH]2)n1)N1CCC2(CCCN(C(=O)c3cccc(-c4nc5ccccc5[nH]4)n3)C2)CC1` [Embodiment L-58, (2,9-diazaspiro[5.5]undecane-2,9-diyl)bis(6-(1H-benzo[d]imidazol-2-yl)pyridin-2-yl)methanone] are 21.5 µM and 3.3 RU.
For `O=C(c1ccnc(Nc2ccccc2)n1)N1CC2CN(C(=O)c3ccnc(Nc4ccccc4)n3)CC2C1` [Embodiment L-83], the affinity, expressed as Kd, was 53.7 µM and the “Rmax (RU)” value was 9.6 RU.
On the same counts, the results for `O=C(NC1CCN(C(=O)c2cccc(-c3nc4ccccc4[nH]3)n2)CC1)c1ccnc(Nc2ccccn2)n1` [Embodiment L-21] are 9.88 µM and 7.3 RU.
The like results for `O=C(c1cccc(-c2cn3ccccc3n2)c1)N1CC2CN(C(=O)c3cccc(-c4cn5ccccc5n4)c3)CC2C1` [Embodiment L-74, (tetrahydropyrrolo[3,4-c]pyrrole-2,5(1H,3H)-diyl)bis((3-(imidazo[1,2-a]pyridin-2-yl)phenyl)methanone)] were, in that order, 25.8 µM and 0.102 RU.
`O=C(c1cccc(Nc2ccccc2)n1)N1CCCC2(CCN(C(=O)c3cccc(-c4nc5ccccc5[nH]4)n3)CC2)C1` [Embodiment L-63, (9-(6-(1H-benzo[d]imidazol-2-yl)picolinoyl)-2,9-diazaspiro[5.5]undecan-2-yl)(6-(phenylamino)pyridin-2-yl)methanone]: the Kd turned out to be 53.5 µM and the “Rmax (RU)” value turned out to be 7.6 RU.
Regarding `O=C(c1cccc(-c2cn3ccccc3n2)c1)N1CCC2(CC1)CCN(C(=O)c1cccc(-c3cn4ccccc4n3)c1)CC2` [Embodiment L-73, (3,9-diazaspiro[5.5]undecane-3,9-diyl)bis((3-(imidazo[1,2-a]pyridin-2-yl)phenyl)methanone)], binding was characterised by a dissociation constant (Kd) of 8.73 µM and the “Rmax (RU)” value came to 4.5 RU.
On the same counts, the results for `Cc1cn(-c2cccc(C(=O)N3CCN(C(=O)c4cccc(-c5nc6ccccc6[nH]5)n4)CC3)c2)cn1` [Embodiment L-117, (4-(6-(1H-benzo[d]imidazol-2-yl)picolinoyl)piperazin-1-yl)(3-(4-methyl-1H-imidazol-1-yl)phenyl)methanone] are 27 µM and 3.2 RU.
On the same counts, the results for `CN1CCC2(CC1)CCN(c1ccc(NC(=O)C3CCN(C(=O)c4cccc(-c5nc6ccccc6[nH]5)n4)C3)cc1)CC2` [Embodiment L-35, 1-(6-(1H-benzo[d]imidazol-2-yl)picolinoyl)-N-(4-(9-methyl-3,9-diazaspiro[5.5]undecan-3-yl)phenyl)pyrrolidine-3-carboxamide] are 66.1 µM and 14.4 RU.
On the same counts, the results for `O=C(c1cccc(-c2nc3ccccc3[nH]2)n1)N1CC2CN(C(=O)c3n[nH]c4ccccc34)CC2C1` [Embodiment L-120, (5-(6-(1Hbenzo[d]imidazol-2-yl)picolinoyl)hexahydropyrrolo[3,4-c]pyrrol-2(1H)-yl)(1H-indazol-3-yl)methanone] are 22.1 µM and 8.9 RU.
Take `O=C(c1ccnc(Nc2ccccn2)c1)N1CC2CN(C(=O)c3cccc(-c4cn5ccccc5n4)n3)CC2C1` [Embodiment L-54, (5-(6-(imidazo[1,2-a]pyridin-2-yl]picolinoyl)hexahydropyrrolo[3,4-c]pyrrol-2(1H)-yl)(2-(pyridin-2-ylamino)pyridin-4-yl)methanone]: the Kd turned out to be 27.8 µM and the “Rmax (RU)” value is reported as 8.4 RU.
The like results for `O=C(c1cccc(-c2nc3ccccc3[nH]2)n1)N1CCC2(CCCN(C(=O)c3ccnc(Nc4ccccc4)n3)C2)CC1` [Embodiment L-64, (9-(6-(1H-benzo[d]imidazol-2-yl)picolinoyl)-2,9-diazaspiro[5.5]undecan-2-yl)(2-(phenylamino)pyrimidin-4-yl)methanone] were, in that order, 48.8 µM and 6.1 RU.
Take `O=C(NC1CCN(C(=O)c2cccc(-c3nc4ccccc4[nH]3)n2)CC1)c1ccnc(Nc2ccccc2)n1` [Embodiment L-19]: the Kd was 25.3 µM and the “Rmax (RU)” value came to 9.7 RU.
Turning to `Cc1ccc(C(=O)N2CC3C(C2)C3NC(=O)c2cccc(-c3nc4ccccc4[nH]3)n2)cc1NC1=CC(=O)c2ccccc2C1=O` [Embodiment L-91], the Kd was 1.71 µM and the “Rmax (RU)” value was 5.2 RU.
In the case of `O=C(NC1CCN(C(=O)c2cccc(-c3cn4ccccc4n3)c2)CC1)c1ccnc(Nc2ccccc2)n1` [Embodiment L-42, N-(1-(3-(imidazo[1,2-a]pyridin-2-yl)benzoyl)piperidin-4-yl)-2-(phenylamino)pyrimidine-4-formamide], the Kd is 13.2 µM and the “Rmax (RU)” value turned out to be 12 RU.
For `O=C(c1cccc(-c2nc3ccccc3[nH]2)n1)N1CCC2(CC1)CCN(C(=O)c1cccc(-c3nc4ccccc4[nH]3)n1)C2` [Embodiment L-59, (2,8-diaza[4.5]decane-2,8-diyl)bis(6-(1H-benzo[d]imidazol-2-yl)pyridin-2-yl)methanone], the Kd was determined as 14.9 µM and the “Rmax (RU)” value amounted to 3.6 RU.
On the same counts, the results for `O=C(c1cccc(-c2nc3ccccc3[nH]2)n1)N1CCN(C(=O)c2n[nH]c3ccccc23)CC1` [Embodiment L-110, (4-(6-(1H-benzo[d]imidazol-2-yl)picolinoyl)piperazin-1-yl)(1H-indazol-3-yl)methanone] are 26.2 µM and 15 RU.
On the same counts, the results for `O=C(c1cccc(Nc2ccccc2)n1)N1CC2CN(C(=O)c3cccc(-c4nc5ccccc5[nH]4)n3)CC2C1` [Embodiment L-46, (5-(6-(1H-benzo[d]imidazol-2-yl)picolinoyl)hexahydropyrrolo[3,4-c]pyrrol-2(1H)-yl)(6-(phenylamino)pyridin-2-yl)methanone] are 30.4 µM and 10.6 RU.
The like results for `O=C(Nc1ccccc1NC(=O)c1ccnc(N2CCOCC2)n1)c1ccnc(N2CCOCC2)n1` [Embodiment L-13, N,N′-(1,2-phenylene)bis(2-morpholinopyrimidine-4-carboxamide)] were, in that order, 38.3 µM and 1.5 RU.
In the case of `Cc1[nH]c2ccccc2c1C(=O)N1CC2CN(C(=O)c3cccc(-c4nc5ccccc5[nH]4)n3)CC2C1` [Embodiment L-71, (5-(6-(1H-benzo[d]imidazol-2-yl)picolinoyl)hexahydropyrrolo[3,4-c]pyrrol-2(1H)-yl)(2-methyl-1H-indol-3-yl)methanone], the Kd came to 40.6 µM and the “Rmax (RU)” value is 5.9 RU.
On to `Cc1ccc(C(=O)N2CCN(C(=O)c3cccc(-c4nc5ccccc5[nH]4)n3)CC2)cc1NC1=CC(=O)c2ccccc2C1=O` [Embodiment L-116, 2-((5-(4-(6-(1H-benzo[d]imidazol-2-yl)picolinoyl)piperazine-1-carbonyl)-2-methylphenyl)amino)naphthalene-1,4-dione], for which binding was put at a Kd of 14.8 µM and the “Rmax (RU)” value is given as 32.5 RU.
On to `Cc1cn(-c2cccc(C(=O)N3CCC4(CCN(C(=O)c5cccc(-c6cn7ccccc7n6)c5)CC4)CC3)c2)cn1` [Embodiment L-92, (9-(3-(imidazo[1,2-a]pyridin-2-yl)benzoyl)-3,9-diazaspiro[5.5]undecan-3-yl)(3-(4-methyl-1H-imidazol-1-yl)phenyl)methanone], for which the affinity, expressed as Kd, was 58.8 µM and the “Rmax (RU)” value amounted to 11 RU.
The like results for `O=C(NC1CCN(C(=O)c2cccc(-c3nc4ccccc4[nH]3)n2)CC1)C1CCCC(c2nc3ccccc3[nH]2)C1` [Embodiment L-20] were, in that order, 43.3 µM and 5.3 RU.
The like results for `O=C(Nc1cccc(-c2cn3ccccc3n2)c1)Nc1cccc(-c2cn3ccccc3n2)c1` [Embodiment L-119, 1,3-Bis(3-(imidazo[1,2-a]pyridin-2-yl)phenyl)urea] were, in that order, 6.78 µM and 10.8 RU.
The like results for `O=C(c1cccc(Nc2ccccc2)n1)N1CC2CN(C(=O)c3cccc(Nc4ccccc4)n3)CC2C1` [Embodiment L-100] were, in that order, 38.5 µM and 7.8 RU.
